The source of these data is patent US20190292167A1, “HETEROAROMATIC COMPOUNDS USEFUL FOR THE TREATMENT OF PROLIFERATIVE DISEASES” (Syros Pharmaceuticals, Inc., priority 2013, published 2019).

One experiment addresses T1, CDK7 (Homo sapiens, UniProt P50613).
T1 construct: purchased Life Technologies (Adapta kinase assay service)
Nature of the experiment: Adapta kinase assay (Life Technologies) against CDK7, co-factors cyclin H and MNAT1. The format is biochemical. The following applies: read-out: CDK7 Inhibition. As to the method:
Compounds of the invention were assayed for activity against CDK7 at Life Technologies™ (Grand Island, N.Y.) using their commercially available Adapta® kinase assay services. […] Details of the assay, including the substrate used for CDK7 kinase, are available on the Life Technologies web site (http://www.lifetechnologies.com/us/en/homellife-science/drug-discovery/target-and-lead-identification-and-validation/kinasebiology/kinase-activity-assays.html).
The co-factors used for the assay were cyclin H and MNAT1.

For a further experiment, the system named is Jurkat. As to the kind of experiment: Inhibition of cell proliferation, CellTiter-Glo, 72 hour. Type of experiment: cell-based. The following applies: Homo sapiens, Jurkat, 72 h, Blood cancer cell line; 72 hour; read-out: Inhibition of Proliferation of Jurkat Cells. As for the experimental part: The following cancer cell lines were tested with the media conditions indicated: […]

Where a name gives a salt, the structure may show the parent alone.

T1 sequence (P50613 whole entry): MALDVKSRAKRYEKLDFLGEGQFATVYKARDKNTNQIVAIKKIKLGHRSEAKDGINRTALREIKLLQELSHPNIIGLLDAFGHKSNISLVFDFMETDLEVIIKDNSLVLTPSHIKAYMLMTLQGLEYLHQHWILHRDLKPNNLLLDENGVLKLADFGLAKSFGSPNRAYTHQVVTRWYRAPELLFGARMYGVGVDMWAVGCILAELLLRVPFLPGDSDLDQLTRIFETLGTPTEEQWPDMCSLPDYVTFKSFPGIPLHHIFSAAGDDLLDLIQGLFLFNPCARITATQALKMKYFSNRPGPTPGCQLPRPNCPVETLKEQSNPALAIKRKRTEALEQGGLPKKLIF
T1 sequence (P51946 whole entry partner): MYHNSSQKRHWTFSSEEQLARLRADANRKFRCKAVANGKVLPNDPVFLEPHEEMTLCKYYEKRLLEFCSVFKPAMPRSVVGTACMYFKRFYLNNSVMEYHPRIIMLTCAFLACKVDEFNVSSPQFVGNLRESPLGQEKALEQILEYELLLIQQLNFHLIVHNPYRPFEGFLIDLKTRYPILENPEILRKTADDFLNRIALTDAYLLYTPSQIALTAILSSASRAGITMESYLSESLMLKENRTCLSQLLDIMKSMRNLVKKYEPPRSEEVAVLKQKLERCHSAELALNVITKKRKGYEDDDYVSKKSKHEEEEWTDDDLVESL
T1 sequence (P51948 whole entry partner): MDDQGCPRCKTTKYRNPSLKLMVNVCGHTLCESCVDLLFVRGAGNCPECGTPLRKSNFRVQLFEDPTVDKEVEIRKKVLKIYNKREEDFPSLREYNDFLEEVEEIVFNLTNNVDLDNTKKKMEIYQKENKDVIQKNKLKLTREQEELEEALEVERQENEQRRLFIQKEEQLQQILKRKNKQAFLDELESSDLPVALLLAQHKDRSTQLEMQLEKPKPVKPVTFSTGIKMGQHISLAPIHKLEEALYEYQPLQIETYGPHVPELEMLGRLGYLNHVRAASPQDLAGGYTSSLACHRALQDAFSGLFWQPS

Take `NCC(=O)Nc1cccc(Nc2ncc(Cl)c(-c3c[nH]c4ccccc34)n2)c1` [Compound 307, 2-amino-N-(3-(5-chloro-4-(1H-indol-3-yl)pyrimidin-2-ylamino)phenyl)acetamide.TFA]: the values for the IC50 on CDK7 and in the experiment on Jurkat were under 100 nM and 500 to 5000 nM, respectively.

For `N#Cc1cnc(N[C@@H]2CCN(C(=O)c3ccc(N)cc3)C2)nc1-c1c[nH]c2ccccc12` [Compound 37, 2-((R)-1-(4-aminobenzoyl)pyrrolidin-3-ylamino)-4-(1H-indol-3-yl)pyrimidine-5-carbonitrile], the values for the IC50 at CDK7 and in the experiment with Jurkat were under 100 nM and 500 to 5000 nM, respectively.

For the molecule `CN(C)C/C=C/C(=O)Nc1ccc(S(=O)(=O)N2CC[C@@H](Nc3ncc(Cl)c(-c4c[nH]c5ccccc45)n3)C2)cc1` [Compound 105, (E)-N-(4-((R)-3-(5-chloro-4-(1H-indol-3-yl)pyrimidin-2-ylamino)pyrrolidin-1-ylsulfonyl)phenyl)-4-(dimethylamino)but-2-enamide], the IC50 is under 100 nM on CDK7 and 500 to 5000 nM in the experiment on Jurkat.

Consider `CN(C/C=C/C(=O)Nc1ccc(CN2CCC(Nc3ncc(Cl)c(-c4c[nH]c5ccccc45)n3)CC2)cc1)CC(=O)O` [Compound 148, 2-[[(E)-4-[4-[[4-[[5-chloro-4-(1H-indol-3-yl)pyrimidin-2-yl]amino]-1-piperidyl]methyl]anilino]-4-oxo-but-2-enyl]-methyl-amino]acetic acid], for which the IC50 is under 100 nM on CDK7 and 500 to 5000 nM in the experiment on Jurkat.

In the case of `CN(C)C/C=C/C(=O)N(C)c1cccc(CN2CCC(Nc3ncc(Cl)c(-c4c[nH]c5ccccc45)n3)CC2)c1` [Compound 145, (E)-N-[3-[[4-[[5-chloro-4-(1H-indol-3-yl)pyrimidin-2-yl]amino]-1-piperidyl]methyl]phenyl]-4-(dimethylamino)-N-methyl-but-2-enamide], the values for the IC50 on CDK7 and in the experiment with Jurkat were under 100 nM and under 500 nM, respectively.

`N#Cc1cnc(NC2CCN(C(=O)c3ccc(N)cc3)CC2)nc1-c1c[nH]c2ccccc12` [Compound 26, 2-(1-(4-aminobenzoyl)piperidin-4-ylamino)-4-(1H-indol-3-yl)pyrimidine-5-carbonitrile]: the IC50 at CDK7 lay in the range of 100 to 1000 nM; with Jurkat, 500 to 5000 nM.

For the molecule `C=CC(=O)Nc1ccc(NC(=O)[C@@H]2C[C@@H](Nc3ncc(Cl)c(-c4c[nH]c5ccccc45)n3)CN(C)C2)cc1` (relative stereo) [Compound 159, (Trans)-N-(4-acrylamidophenyl)-5-((5-chloro-4-(1H-indol-3-yl)pyrimidin-2-yl)amino)-1-methylpiperidine-3-carboxamide], the IC50 at CDK7 was in the range of 100 to 1000 nM.

On to `Cc1nc(C)c(-c2nc(N[C@H]3CC[C@@H](NC(=O)c4ccc(NC(=O)/C=C/CN(C)C)cc4)C3)ncc2Cl)s1` (racemic) [Compound 128, N-((1R,3S)-3-((5-chloro-4-(2,4-dimethylthiazol-5-yl)pyrimidin-2-yl)amino)cyclopentyl)-4-((E)-4-(dimethylamino)but-2-enamido)benzamide and N-((1S,3R)-3-((5-chloro-4-(2,4-dimethylthiazol-5-yl)pyrimidin-2-yl)amino)cyclopentyl)-4-((E)-4-(dimethylamino)but-2-enamido)benzamide], for which the IC50 at CDK7 was in the range of 100 to 1000 nM; in the experiment with Jurkat, 500 to 5000 nM.

As to `CN1CCN(C/C=C/C(=O)Nc2ccc(C(=O)N3CC[C@@H](Nc4ncc(C#N)c(-c5c[nH]c6ccccc56)n4)C3)cc2)CC1` [Compound 110, (E)-N-(4-((R)-3-(5-cyano-4-(1H-indol-3-yl)pyrimidin-2-ylamino)pyrrolidine-1-carbonyl)phenyl)-4-(4-methylpiperazin-1-yl)but-2-enamide], the IC50 on CDK7 is under 100 nM; in the experiment on Jurkat it was under 500 nM.

Consider `C=CC(=O)Nc1ccc(CNC(=O)[C@H]2CNCC(Nc3ncc(Cl)c(-c4c[nH]c5ccccc45)n3)C2)cc1` (mixture of isomers) [Compound 151, (+/−trans)-N-(4-acrylamidobenzyl)-5-((5-chloro-4-(1H-indol-3-yl)pyrimidin-2-yl)amino)piperidine-3-carboxamide], for which the IC50 was under 100 nM at CDK7 and under 500 nM with Jurkat.

For the molecule `Cc1noc(C)c1-c1nc(N[C@H]2CC[C@@H](NC(=O)c3ccc(NC(=O)/C=C/CN(C)C)cc3)C2)ncc1Cl` (racemic) [Compound 122, N-((1R,3S)-3-((5-chloro-4-(3,5-dimethylisoxazol-4-yl)pyrimidin-2-yl)amino)cyclopentyl)-4-((E)-4-(dimethylamino)but-2-enamido)benzamide and N-((1S,3R)-3-((5-chloro-4-(3,5-dimethylisoxazol-4-yl)pyrimidin-2-yl)amino)cyclopentyl)-4-((E)-4-(dimethylamino)but-2-enamido)benzamide], the IC50 was 100 to 1000 nM on CDK7 and under 500 nM in the experiment with Jurkat.

Consider `Cc1nc(C)c(-c2nc(NC3CCN(C(=O)c4ccc(NC(=O)/C=C/CN(C)C)cc4)CC3)ncc2Cl)s1` [Compound 119, (E)-N-(4-(4-((5-chloro-4-(2,4-dimethylthiazol-5-yl)pyrimidin-2-yl)amino)piperidine-1-carbonyl)phenyl)-4-(dimethylamino)but-2-enamide], for which the IC50 was in the range of 100 to 1000 nM at CDK7 and 500 to 5000 nM in the experiment with Jurkat.

Regarding `Cc1cc(C(=O)N2CCC(Nc3ncc(Cl)c(-c4c[nH]c5ccccc45)n3)CC2)ccc1NC(=O)/C=C/CN(C)C` [Compound 113, (E)-N-(4-(4-(5-chloro-4-(1H-indol-3-yl)pyrimidin-2-ylamino)piperidine-1-carbonyl)-2-methylphenyl)-4-(dimethylamino)but-2-enamide], the IC50 was under 100 nM at CDK7 and under 500 nM in the experiment with Jurkat.

Take `CN(C)C/C=C/C(=O)Nc1ccc(CN2CCC(Nc3ncc(Cl)c(-c4c[nH]c5ccccc45)n3)CC2)cc1` [Compound 106, (E)-N-(4-((4-((5-chloro-4-(1H-indol-3-yl)pyrimidin-2-yl)amino)piperidin-1-yl)methyl)phenyl)-4-(dimethylamino)but-2-enamide]: the IC50 at CDK7 is under 100 nM; in the experiment on Jurkat, under 500 nM.

On to `CN(C/C=C/C(=O)Nc1ccc(CN2CCC(Nc3ncc(Cl)c(-c4c[nH]c5ccccc45)n3)CC2)cc1)CC(O)CO` (stereo not drawn) [Compound 143, (E)-N-(4-((4-((5-chloro-4-(1H-indol-3-yl)pyrimidin-2-yl)amino)piperidin-1-yl)methyl)phenyl)-4-((2,3-dihydroxypropyl)(methyl)amino)but-2-enamide], for which the IC50 at CDK7 is under 100 nM; in the experiment with Jurkat it was under 500 nM.

For the molecule `CN(C)C/C=C/C(=O)Nc1ccc(C(=O)N[C@H]2CC[C@@H](Nc3ncc(Cl)c(-c4c[nH]c5ccccc45)n3)C2)cc1` [Compound 130, N-((1S,3R)-3-((5-chloro-4-(1H-indol-3-yl)pyrimidin-2-yl)amino)cyclopentyl)-4-((E)-4-(dimethylamino)but-2-enamido)benzamide], the IC50 in the experiment on Jurkat was under 500 nM.

Regarding `Nc1ccc(S(=O)(=O)N2CC[C@@H](Nc3ncc(Cl)c(-c4c[nH]c5ccccc45)n3)C2)cc1` [Compound 32, N—((R)-1-(4-aminophenylsulfonyl)pyrrolidin-3-yl)-5-chloro-4-(1H-indol-3-yl)pyrimidin-2-amine], the results for the IC50 on CDK7 and in the experiment with Jurkat were under 100 nM and over 5000 nM, respectively.

Regarding `CN(C)CC=CC(=O)Nc1ccc(C(=O)NC2CNCC(Nc3ncc(Cl)c(-c4c[nH]c5ccccc45)n3)C2)cc1` (racemic) [Compound 149, N-((+/−cis)-5-((5-chloro-4-(1H-indol-3-yl)pyrimidin-2-yl)amino)piperidin-3-yl)-4-((E)-4-(dimethylamino)but-2-enamido)benzamide], the IC50 at CDK7 was under 100 nM; with Jurkat, 500 to 5000 nM.

For the molecule `C=CC(=O)Nc1ccc(NC(=O)[C@H]2C[C@@H](Nc3ncc(Cl)c(-c4c[nH]c5ccccc45)n3)CN(C)C2)cc1` (relative stereo) [Compound 160, (Cis)-N-(4-acrylamidophenyl)-5-((5-chloro-4-(1H-indol-3-yl)pyrimidin-2-yl)amino)-1-methylpiperidine-3-carboxamide], on CDK7, the IC50 is under 100 nM.

For `Cc1cc(C(=O)N2CCC(Nc3ncc(Cl)c(-c4c[nH]c5ccccc45)n3)CC2)ccc1N` [Compound 59, (4-amino-3-methylphenyl)(4-(5-chloro-4-(1H-indol-3-yl)pyrimidin-2-ylamino)piperidin-1-yl)methanone], the IC50 on CDK7 was under 100 nM; with Jurkat it was under 500 nM.

For `CN(C)C/C=C/C(=O)Nc1ccc(C(=O)N2CCC(Nc3ncc(Cl)c(-c4c[nH]cn4)n3)CC2)cc1` [Compound 127, (E)-N-(4-(4-((5-chloro-4-(1H-imidazol-4-yl)pyrimidin-2-yl)amino)piperidine-1-carbonyl)phenyl)-4-(dimethylamino)but-2-enamide], the values for the IC50 on CDK7 and with Jurkat were 100 to 1000 nM and over 5000 nM, respectively.

As to `CS(=O)(=O)NC/C=C/C(=O)Nc1ccc(CN2CCC(Nc3ncc(Cl)c(-c4c[nH]c5ccccc45)n3)CC2)cc1` [Compound 158, (E)-N-(4-((4-((5-chloro-4-(1H-indol-3-yl)pyrimidin-2-yl)amino)piperidin-1-yl)methyl)phenyl)-4-(methylsulfonamido)but-2-enamide], on CDK7, the IC50 is 100 to 1000 nM.

As to `Nc1ccc(C(=O)NC2CC3(C2)CC(Nc2ncc(Cl)c(-c4c[nH]c5ccccc45)n2)C3)cc1` (stereo not drawn) [Compound 318, 4-amino-N-(6-((5-chloro-4-(1H-indol-3-yl)pyrimidin-2-yl)amino)spiro[3.3]heptan-2-yl)benzamide], the IC50 in the experiment with Jurkat was over 5000 nM.

Turning to `CN(C)C/C=C/C(=O)Nc1ccc(C(=O)N[C@H]2C[C@@H](Nc3ncc(Cl)c(-c4c[nH]c5ccccc45)n3)CN(C)C2)cc1` (racemic) [161/162, N-[(3S)-5-[[5-chloro-4-(1H-indol-3-yl)pyrimidin-2-yl]amino]-1-methyl-3-piperidyl]-4-[[(E)-4-(dimethylamino)but-2-enoyl]amino]benzamide], at CDK7, the IC50 was under 100 nM.
